Results from US20220387396A1, “METHODS OF TREATING THE SYMPTOMS OF AUTISM SPECTRUM DISORDER” (MapLight Therapeutics, Inc., priority 2019, published 2022).
Where “and” joins values, the source holds several entries; their conditions need not be identical. Equal values may be shown once. Marks after values point to notes of the source that are not given here.

Experiments:
resident BALB/c mice = test: Resident-Intruder (RI) assay, BALB/c resident / C57BL/6 intruder; assay type: in vivo, mouse
Text: Correspondingly, the RI assay has been used preclinically to study the effect of drugs on rodent aggression (Miczek et al., 2001). The RI assay typically relies on the interpretation and scoring of offensive (resident animal) behavior patterns and may also include analysis of defensive (intruder animal) behavior patterns as well. […] The resident mice were isolated for 1 week prior to testing aggressive behavior, while the intruders were group housed (4 per cage) throughout the study. All mice were given ad libitum food and water. Following the 1-week isolation period, aggressive behaviors were recorded using a front-facing camera daily (Monday-Friday) for up to 2 weeks to attain a stable baseline prior to evaluating drug effects. The interaction was scored using Borris open source event logging software to score the number of total initiated attacks by the resident and the cumulative duration of those attacks. Single fight bouts lasting longer than 60 seconds were stopped and the intruder was subsequently removed from the resident cage. […] The resident mice were treated with vehicle for two consecutive days and then balanced for a two arm (3 and 10 mg/kg) cross over study. […] The consecutive fourth and fifth days were vehicle treatment followed by a final cross over treatment day on the sixth day.

resident CD-1 mice = test: Resident-Intruder (RI) assay, CD-1 resident / C57BL/6 intruder; assay type: in vivo, mouse; conditions: CD-1 resident mice, cross-over, N=25, zolmitriptan 10 mg/kg, risperidone 0.03 mg/kg, mean; for Attack Time (s): 5 min period
Experimental: The resident mice were isolated for 1 week prior to testing aggressive behavior, while the intruders were group housed (4 per cage) throughout the study. All mice were given ad libitum food and water. Following the 1-week isolation period, aggressive behaviors were recorded using a front-facing camera daily (Monday-Friday) for up to 2 weeks to attain a stable baseline prior to evaluating drug effects. The interaction was scored using Borris open source event logging software to score the number of total initiated attacks by the resident and the cumulative duration of those attacks. Single fight bouts lasting longer than 60 seconds were stopped and the intruder was subsequently removed from the resident cage. […] Attack time was measured over a 5 min period as a cross over design.

[1] = system: VPA-exposed male c57/B16 mice; test: 3-chamber Social Interaction Assay in valproic acid (VPA)-induced mouse model of ASD; assay type: in vivo; conditions: adult male c57/B16 mice previously exposed to VPA; 10 mg/kg i.p. 15 min before test; vs vehicle
Experimental: Specifically, sociability was evaluated in male c57/B16 mice that were previously exposed to valproic acid (VPA) via i.p. delivery of 500 mg/kg to their pregnant mothers at embryonic Day 13.
In this study, zolmitriptan was dissolved in 10% (2-Hydroxypropyl)-o-cyclodextrin in saline and administered intraperitoneally (i.p.) 15 minutes before mice were placed in the test chamber. Behavioral recordings were measured using an automated video tracking system (Noldus EthoVision v14) and analyzed and graphed using GraphPad Prism software v8. Sociability was assessed during a 10 min period in the 3-chamber Social Interaction Assay. The time spent (sec) in the social interaction zone (SIZ) in front of the juvenile novel C57/BL6 vs empty interaction zone (EIZ) were used to calculate the sociability scores for individual mice. Sociability index was calculated using SIZ/EIZ ratio. Social interaction preference was calculated using (SIZ)/(SIZ+EIZ)*100. Simultaneous recording up to 4 arenas were conducted for the social interaction assay. Paired and unpaired T tests were used as statistical tests.

[2] = Multiple ascending oral dose study in adult healthy volunteers (safety, tolerability, CSF PK); assay type: in vivo, human
Experimental: An investigation of the safety, tolerability and pharmacokinetic response of oral zolmitriptan following multiple ascending doses in adult healthy volunteer subjects was undertaken.
Zolmitriptan 2.5 mg per tablet or placebo tablet was administered 3 times per day (TID) for an up-titration period, treatment period of 7 days, and a down-titration period. The dose regimen is depicted in Table 1.
A lumbar puncture was completed on each subject to determine the concentration of zolmitriptan in the CSF. CSF samples were collected on day 5 of treatment for Cohort 1 and day 7 of treatment for Cohorts 2 and 3, and day 8 of treatment for cohort 4 and 5. The CSF collection was 2 hours after the morning dose (+/−30 minutes). CSF concentration was measured using a validated bioanalytical method.

[3] = biological target: T1, human 5-HT1b (h5-HT1b) receptors (Homo sapiens, UniProt P28222); test: SPA-based 35S-GTPγS binding assay, human 5-HT1b; assay type: biochemical; conditions: for EC50: ten concentrations in duplicate
T1 construct: expressed in transfected cells

[4] = biological target: T2, rat recombinant 5-HT1b (r5-HT1b) receptors (Rattus norvegicus, UniProt P28564); test: SPA-based 35S-GTPγS binding assay, rat 5-HT1b; assay type: biochemical; conditions: for EC50: ten concentrations in duplicate
T2 construct: expressed in transfected cells

5-HT1b receptor [5] = biological target: T3, 5-HT1b receptor (Homo sapiens, UniProt P28222); test: Radioligand binding competition assay with 3H-5-CT; conditions: for Ki: 3H-5-CT, derived from IC50 using Cheng-Prusoff equation
Text: The Ki values were derived from IC50 values using Cheng-Prusoff equation.

5-HT1b receptor [6] = biological target: T3, 5-HT1b receptor; test: 5-HT1b receptor occupancy and efficacy model, human dose prediction; conditions: for Zolmitriptan human dose: predicted dose; for Zolmitriptan [CSF]: predicted effective human CSF range
Text: Specifically, 5-HT1b receptor occupancy and efficacy models measured potency of zolmitriptan and NMDZ at the 5-HT1b receptor and the ratio of zolmitriptan: NDMZ in human CSF.
Using classical receptor theory, the receptor occupancy when considering two ligands (i.e., entities) can be predicted using the following relationship:
Total % occupancy=(% occupancy by A)+{[100%−(% occupancy by A)]×(% occupancy by B)} when considering a fixed concentration of both A and B.
The model was converted to predict the level of 5-HT1b activation (i.e., efficacy) by both zolmitriptan and NDMZ based on the concentration of zolmitriptan in the CSF by substituting Occupancy for Efficacy as predicted by the Clark equation {Efficacy=[L]/([L]+Ki); [L]=ligand concentration} for both zolmitriptan and NDMZ:
Total % Efficacy={[Zolmitriptan]/([Zolmitriptan]+Ki,Z)}+(100−{[Zolmitriptan]/([Zolmitriptan]+Ki,Z)}×{[NDMZ]/([NDMZ]+Ki,N)}

in vivo = conditions: male, CD-1, mouse, ip
[7] = CSF exposure in c57/B16 mice after i.p. dosing
[8] = CSF exposure in adult male CD-1 mice after i.p. dosing; conditions: male CD-1 mice dosed with zolmitriptan 3 and 10 mg/kg i.p.
[9] = BALB/c resident mice, 3 and 10 mg/kg i.p., 15 min pretreatment, 5 min interaction, cross-over vs vehicle
[10] = male, c57/B16, mouse, CSF, ip, 10 mg/kg

T3 sequence (P28222 whole entry): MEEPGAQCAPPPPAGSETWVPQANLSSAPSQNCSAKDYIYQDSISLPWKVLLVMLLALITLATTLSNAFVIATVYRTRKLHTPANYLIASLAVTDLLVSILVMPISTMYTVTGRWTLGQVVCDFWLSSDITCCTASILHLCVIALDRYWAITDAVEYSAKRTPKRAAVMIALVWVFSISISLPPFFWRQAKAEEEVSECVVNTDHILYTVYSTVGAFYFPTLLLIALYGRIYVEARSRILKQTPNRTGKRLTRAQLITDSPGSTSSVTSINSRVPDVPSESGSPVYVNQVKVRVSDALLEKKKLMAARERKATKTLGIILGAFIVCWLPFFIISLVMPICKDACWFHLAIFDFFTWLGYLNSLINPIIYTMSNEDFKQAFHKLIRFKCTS
T1 sequence (P28222 whole entry): as above
T2 sequence (P28564 whole entry): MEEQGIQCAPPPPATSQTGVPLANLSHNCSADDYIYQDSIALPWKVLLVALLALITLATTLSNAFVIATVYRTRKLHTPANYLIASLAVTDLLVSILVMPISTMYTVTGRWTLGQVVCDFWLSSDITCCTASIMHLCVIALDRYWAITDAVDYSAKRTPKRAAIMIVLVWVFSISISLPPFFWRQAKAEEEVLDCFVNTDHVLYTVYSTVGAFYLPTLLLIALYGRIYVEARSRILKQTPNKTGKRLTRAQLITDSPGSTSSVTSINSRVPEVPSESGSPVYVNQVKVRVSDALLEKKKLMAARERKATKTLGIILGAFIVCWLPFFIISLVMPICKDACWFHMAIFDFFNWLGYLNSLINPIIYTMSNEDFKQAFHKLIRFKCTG

## CN(C)CCc1c[nH]c2ccc(C[C@H]3COC(=O)N3)cc12 [Zolmitriptan, zolmitriptan]
Resident BALB/c mice; [9]
  attack time: reduction
  number of attacks: reduction in the number of attacks
Resident BALB/c mice; BALB/c resident mice, 3 and 10 mg/kg i.p., p<0.05, paired t-test
  attack behavior, dose dependence: significant dose dependent effect of reduction in attack behavior
Resident BALB/c mice; treated mice, 3 and 10 mg/kg
  normal locomotor activity: did not effect normal locomotor activity
Resident CD-1 mice
  Attack Time (s): 18.46*** s
  Latency to Attack: 13.54 s
Resident CD-1 mice; listed as zolmitriptan
  Attack Time (s): greater reduction in attack time
[1]
  sociability index (SIZ/EIZ ratio): increased the sociability index
[2]; adult healthy volunteers, oral TID multiple ascending doses, all Cohorts
  safety and tolerability: safe and well tolerated
[2]; human, CSF, oral, read-out: CSF: plasma ratio for exposure
  Kp at 2 h: 0.03
[3]; extrapolated from species difference in EC50
  CSF levels required for therapeutic effect, humans vs mice (fold lower): about 8.3 fold
[3]
  EC50: 4 nM
[4]; CD-1 mouse, 3 mg/Kg i.p., CSF Cmax 18.8 nM
  activity in GTPgS at CSF Cmax: 36%
[4]; c57/Bl6 mouse, 10 mg/Kg i.p., CSF Cmax 62 nM
  activity in GTPgS at CSF Cmax: 65%
[4]; rat EC50 relative to human EC50
  difference between species in EC50 (rat vs human 5-HT1b): 8.3 fold
[4]
  EC50: 33 nM
5-HT1b receptor [5]
  Ki: 3.34 nM
5-HT1b receptor [6]; combined effect of metabolite
  concentration for 50% Total Efficacy relative to zolmitriptan EC50: 3.7 fold
5-HT1b receptor [6]; model prediction
  concentration of zolmitriptan in human CSF predicted to induce 50% efficacy (EC50) of 5-HT1b by zolmitriptan and NDMZ: 1.09 nM and 0.31 ng/ml
5-HT1b receptor [6]; Activity EC20-EC80
  Zolmitriptan human dose: 1.25 to 35 mg
  Zolmitriptan [CSF]: 0.078 to 1.24 ng/mL
5-HT1b receptor [6]; Activity EC25-EC75
  Zolmitriptan human dose: 1.7 to 30 mg
  Zolmitriptan [CSF]: 0.103 to 0.93 ng/mL
5-HT1b receptor [6]; Activity EC30-EC70
  Zolmitriptan human dose: 2.25 to 20 mg
  Zolmitriptan [CSF]: 0.135 to 0.713 ng/mL
5-HT1b receptor [6]; Activity EC35-EC65
  Zolmitriptan human dose: 3 to 15 mg
  Zolmitriptan [CSF]: 0.167 to 0.577 ng/mL
5-HT1b receptor [6]; Activity EC40-EC60
  Zolmitriptan human dose: 5 to 12.5 mg
  Zolmitriptan [CSF]: 0.207 to 0.465 ng/mL
In vivo; 3 mg/kg
  Cmax: 0.0054 µg/mL
In vivo; 10 mg/kg
  Cmax: 0.0344 µg/mL
[7]; 10 mg/Kg i.p.
  c57/B16 mouse CSF Cmax (10 mg/Kg, i.p.): 0.01783 µg/mL
[7]; c57/Bl6 ASD mouse model, 10 mg/Kg i.p.
  estimated effective CSF Cmax: 0.062 µM
[7]; male, c57/B16, mouse, CSF, intraperitoneal, 10 mg/kg
  Kp: 0.0076
[7]; [10]
  Cmax: 0.0178 µg/mL
  Kp: 0.0076

## CN1CCC[C@@H]1Cc1c[nH]c2ccc(CCS(=O)(=O)c3ccccc3)cc12 [Eletriptan, eletriptan]
[3]
  EC50: 8.8 nM
[4]
  EC50: 120 nM
5-HT1b receptor [5]
  Ki: 4.48 nM
[7]; 10 mg/Kg i.p.
  c57/B16 mouse CSF Cmax (10 mg/Kg, i.p.): 0.01346 µg/mL
[7]; [10]
  Kp: 0.0077

## CN[C@@H]1CCc2[nH]c3ccc(C(N)=O)cc3c2C1 [Frovatriptan, frovatriptan]
[7]; 10 mg/Kg i.p.
  c57/B16 mouse CSF Cmax (10 mg/Kg, i.p.): 0.01252 µg/mL
[7]; [10]
  Kp: 0.0015

## Cc1nc2n(c(=O)c1CCN1CCC(c3noc4cc(F)ccc34)CC1)CCCC2 [Risperidone]
Resident CD-1 mice
  Attack Time (s): 21.58* s
  Latency to Attack: 12.98 s

## CN(C)CCc1c[nH]c2ccc(Cn3cncn3)cc12 [Rizatriptan, rizatriptan]
[4]
  EC50: 210 nM
[7]; 10 mg/Kg i.p.
  c57/B16 mouse CSF Cmax (10 mg/Kg, i.p.): 0.0902 µg/mL
[7]; [10]
  Kp: 0.0466

## CNS(=O)(=O)CCc1ccc2[nH]cc(C3CCN(C)CC3)c2c1 [Naratriptan, naratriptan]
[3]
  EC50: 1.2 nM
[4]
  EC50: 7.4 nM
5-HT1b receptor [5]
  Ki: 0.95 nM
[7]; 10 mg/Kg i.p.
  c57/B16 mouse CSF Cmax (10 mg/Kg, i.p.): 0.07956 µg/mL
[7]; [10]
  Kp: 0.0312

## CNCCc1c[nH]c2ccc(C[C@H]3COC(=O)N3)cc12 [NDMZ, N-desmethyl zolmitriptan]
5-HT1b receptor [5]
  Ki: 1.18 nM
5-HT1b receptor [5]; from Ki values
  potency relative to zolmitriptan at human 5-HT1b: 2.83 fold
[7]; male c57/B16 mice dosed with zolmitriptan 10 mg/kg i.p.
  metabolite NDMZ level in CSF: below the lower limit of quantification
[8]
  metabolite NDMZ level: below the lower limit of quantification
